{
  "source": "patent US11879145B2",
  "about": "“Reagents and methods for replication, transcription, and translation in semi-synthetic organisms” (The Scripps Research Institute, priority 2019, dated 2024)",
  "system": "sfGFP^151(AXC)",
  "assay": "In vivo translation screen of XTPs/YTPs: protein shift (AzK incorporation) by DBCO-TAMRA western blot",
  "format": "cell-based, E. coli",
  "conditions": "TPT3TP 30 μM, dCNMO-dTPT3 UBP, strain ML2",
  "description": "In vivo Translation Screen of XTPs/YTPs. An overnight culture of the SSO strain ML2 carrying the pGEX-MbPylRS TetR plasmid was grown in 2×YT supplemented with 50 mM potassium phosphate, […] chloramphenicol and 100 μg/mL carbenicillin (herein referred to in this section as “media”), then diluted back to an OD600 of 0.03 in the same media and grown to an OD600 of 0.4 to 0.6. The culture was then chilled with shaking over ice-water for 15 minutes then pelleted by centrifugation at 3,200×g for 10 min. Cells were then resuspended and washed with ice-cold ddH2O twice then resuspended in ice-cold ddH2O to OD600 of 55-65. The electrocompetent cells (50 μL) and 1 ng of Golden Gate assembled plasmid with the UBP within the sfGFP and tRNAPyl genes (see Golden Gate Assembly of Plasmids) were transferred to a pre-chilled electroporation cuvette (0.2-cm-gap), then electroporated (Gene Pulser II; Bio-Rad) according to manufacturer's recommendations (voltage […], capacitor 2.5 μF, resistor 200Ω), and then immediately diluted with 950 μL of media. An aliquot (40 μL) of the transformation was then diluted five-fold in media supplemented with dCNMOTP (25 μM) and dTPT3TP (10 μM) for a final volume of 200 μL then allowed to recover for 1 h shaking at 37° C. Two-fold dilutions of the recovery were plated onto solid media supplemented with zeocin (50 μg/mL), dCNMOTP (10 μM), dTPT3TP (10 μM), and agar (2% w/v), then grown at 37° C. for 18 h. Single colonies were picked and grown in media (300 μL) supplemented with 50 μg/mL zeocin and provided dCNMOTP (25 μM) and dTPT3TP (10 μM) (herein afterward referred to in this section as “growth media”). The culture was monitored for cell growth (Envision 2103 Multilabel Plate Reader with a 590/20 nm filter) and then collected at an OD600˜1.0. An aliquot (50 μL) was subjected to plasmid isolation using the ZR Plasmid Prep Kit (Zymo Research). Isolated plasmids were then subjected to the streptavidin gel shift assay described below (using primers P3-4 and P5-6, Table S1) to determine UBP retention.\nA colony with excellent UBP retention was then diluted to an OD600˜0.01 in growth media and grown to OD600˜0.4-0.6. This culture was then divided into multiple 300 μL cultures and for the screen of XTP analogs, each was provided with the corresponding XTP (at either 25 μM or 250 μM) or ddH2O for “−XTP” samples, TPT3TP (30 μM), and AzK (10 mM). For the screen of YTP analogs, each 300 μL culture was provided with the corresponding YTP (at either 25 μM or 250 μM) or ddH2O for “−YTP” samples, NaMTP (250 μM), and AzK (10 mM). Samples were shielded from light after addition of AzK to prevent photodegradation. These samples were then grown at 37° C. for 20 min before adding 1 mM IPTG and grown at 37° C. for an additional 1 h to induce T7 RNAP and transcription of tRNAPyl and PylRS. From this point on, cells were monitored for growth and fluorescence. Expression of sfGFP was then induced with anhydrotetracycline (100 ng/mL). After an additional 3 h of growth at 37° C., cells were collected (230 μL for affinity purification of sfGFP), cooled, and then pelleted and stored at −80° C. before protein purification.\nAffinity Purification of sfGFP. Cell pellets collected from translation experiments were resuspended in BugBuster (100 μL 1×, EMD Millipore) and shaken at room temperature for 15 min. […]",
  "data": [
    {"compound": "COc1cc(C)c(F)cc1[C@@H]1O[C@H](COP(=O)(O)OP(=O)(O)OP(=O)(O)O)[C@@H](O)[C@H]1O", "note": "[Compound 5FMTP]", "values": [
      {"measurement": "sfGFP protein gel shift (ncAA incorporation)", "setting": "XTP 25 μM", "value": 94, "unit": "%"},
      {"measurement": "sfGFP protein gel shift (ncAA incorporation)", "setting": "XTP 250 μM", "value": 98, "unit": "%"}
    ]}
  ]
}
